Tested on: 991263-137-R1-J2-PDC complex spheroid viability
Assay: Anticancer human tumor 991263-137-R1-J2-PDC patient-derived colon adenocarcinoma cell line growth inhibition [POLQ]
Conditions: for IC50: curve of first compound; for viability, T/C: stronger effect = lower value
Method in brief: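 Growth inhibition in 3D: complex spheroids (tumor PDC, HUVEC, MSC) treated with POLQ inhibitor combinations; where Cmax unknown, highest tested concentration 10 microM, except SN-38 at 1 microM.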

[1] = second compound 0.0316 µM, first compound 0.0316 µM
[2] = second compound 0.0316 µM, first compound 0.1 µM
[3] = second compound 0.0316 µM, first compound 0.316 µM
[4] = second compound 0.0316 µM, first compound 1 µM
[5] = second compound 0.0316 µM, first compound 3.16 µM
[6] = second compound 0.0316 µM, first compound 10 µM
[7] = second compound 0.1 µM, first compound 0.0316 µM
[8] = second compound 0.1 µM, first compound 0.1 µM
[9] = second compound 0.1 µM, first compound 0.316 µM
[10] = second compound 0.1 µM, first compound 1 µM
[11] = second compound 0.1 µM, first compound 3.16 µM
[12] = second compound 0.1 µM, first compound 10 µM
[13] = second compound 0.316 µM, first compound 0.0316 µM
[14] = second compound 0.316 µM, first compound 0.1 µM
[15] = second compound 0.316 µM, first compound 0.316 µM
[16] = second compound 0.316 µM, first compound 1 µM
[17] = second compound 0.316 µM, first compound 3.16 µM
[18] = second compound 0.316 µM, first compound 10 µM
[19] = second compound 1 µM, first compound 0.0316 µM
[20] = second compound 1 µM, first compound 0.1 µM
[21] = second compound 1 µM, first compound 0.316 µM
[22] = second compound 1 µM, first compound 1 µM
[23] = second compound 1 µM, first compound 3.16 µM
[24] = second compound 1 µM, first compound 10 µM
[25] = second compound 3.16 µM, first compound 0.0316 µM
[26] = second compound 3.16 µM, first compound 0.1 µM
[27] = second compound 3.16 µM, first compound 0.316 µM
[28] = second compound 3.16 µM, first compound 1 µM
[29] = second compound 3.16 µM, first compound 3.16 µM
[30] = second compound 3.16 µM, first compound 10 µM
[31] = second compound 10 µM, first compound 0.0316 µM
[32] = second compound 10 µM, first compound 0.1 µM
[33] = second compound 10 µM, first compound 0.316 µM
[34] = second compound 10 µM, first compound 1 µM
[35] = second compound 10 µM, first compound 3.16 µM
[36] = second compound 10 µM, first compound 10 µM
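Also: spheroids exposed to compounds for 7 days before readout.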
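For viability, T/C in this document: 100% = DMSO vehicle control viability.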

`CC(C)n1c(=O)n(C)c2cnc3cc(F)c(-c4ccc(OCCCN5CCCCC5)nc4)cc3c21` + COC1C(OC(N)=O)C(O)C(Oc2ccc3c(O)c(NC(=O)c4ccc(O)c(CC=C(C)C)c4)c(=O)oc3c2C)OC1(C)C was tested, and the IC50 (second compound 0.0316 µM) was > 10 µM, the IC50 (second compound 0.1 µM) was > 10 µM and the IC50 (second compound 0.316 µM) was > 10 µM. The IC50 (second compound 1 µM) was > 10 µM, the IC50 (second compound 3.16 µM) was > 10 µM and the IC50 (second compound 10 µM) was > 10 µM. The viability, T/C [1] was 107%, the viability, T/C [2] was 109% and the viability, T/C [3] was 118%. The viability, T/C [4] was 101%, the viability, T/C [5] was 103% and the viability, T/C [6] was 82.7%. It also gave a viability, T/C [7] of 91.5%, a viability, T/C [8] of 106% and a viability, T/C [9] of 116%. It also gave a viability, T/C [10] of 99%, a viability, T/C [11] of 102% and a viability, T/C [12] of 82.1%. The viability, T/C [13] was 86.3%, the viability, T/C [14] was 114% and the viability, T/C [15] was 117%. It also gave a viability, T/C [16] of 96.9%, a viability, T/C [17] of 106% and a viability, T/C [18] of 96.2%. It also gave a viability, T/C [19] of 109%, a viability, T/C [20] of 106% and a viability, T/C [21] of 112%. For the same compound, the viability, T/C [22] was 83.5%, the viability, T/C [23] was 109% and the viability, T/C [24] was 90%. For the same compound, the viability, T/C [25] was 111%, the viability, T/C [26] was 116% and the viability, T/C [27] was 110%. For the same compound, the viability, T/C [28] was 108%, the viability, T/C [29] was 95.3% and the viability, T/C [30] was 96.1%. It also gave a viability, T/C [31] of 95.1%, a viability, T/C [32] of 119% and a viability, T/C [33] of 117%. The viability, T/C [34] was 114%, the viability, T/C [35] was 107% and the viability, T/C [36] was 96.6%.

With `O=C(Nc1ccc(O)c(NS(=O)(=O)c2ccc(F)cc2)c1)c1ccc(-c2ccccc2)cc1` + Cc1cccc(N(C)C(=O)C2C(O)CCN2c2nc(C)cc(C(F)(F)F)c2C#N)c1 the IC50 (second compound 0.0316 µM) was > 10 µM, the IC50 (second compound 0.1 µM) was > 10 µM and the IC50 (second compound 0.316 µM) was > 10 µM. The IC50 (second compound 1 µM) was > 10 µM, the IC50 (second compound 3.16 µM) was > 10 µM and the IC50 (second compound 10 µM) was > 10 µM. The viability, T/C [1] was 103%, the viability, T/C [2] was 99.6% and the viability, T/C [3] was 90.9%. The viability, T/C [4] was 101%, the viability, T/C [5] was 87.2% and the viability, T/C [6] was 92%. It also gave a viability, T/C [7] of 96.8%, a viability, T/C [8] of 95.7% and a viability, T/C [9] of 113%. For the same compound, the viability, T/C [10] was 94.8%, the viability, T/C [11] was 99% and the viability, T/C [12] was 91%. The viability, T/C [13] was 98.3%, the viability, T/C [14] was 97.5% and the viability, T/C [15] was 103%. It also gave a viability, T/C [16] of 80.9%, a viability, T/C [17] of 99.6% and a viability, T/C [18] of 86.5%. The viability, T/C [19] was 99.2%, the viability, T/C [20] was 99% and the viability, T/C [21] was 106%. The viability, T/C [22] was 94.2%, the viability, T/C [23] was 103% and the viability, T/C [24] was 80.1%. The viability, T/C [25] was 96.4%, the viability, T/C [26] was 96.2% and the viability, T/C [27] was 95.2%. For the same compound, the viability, T/C [28] was 109%, the viability, T/C [29] was 105% and the viability, T/C [30] was 85.8%. It also gave a viability, T/C [31] of 93.7%, a viability, T/C [32] of 95.9% and a viability, T/C [33] of 90.5%. It also gave a viability, T/C [34] of 96.8%, a viability, T/C [35] of 105% and a viability, T/C [36] of 87.5%.

`O=c1[nH]cc(F)c(=O)[nH]1` + Nc1ccc(C#CCN(C(=O)Cc2ncc(C(F)(F)F)cc2C(F)(F)F)c2ccc(F)cc2)nn1 was tested, and the IC50 (second compound 0.0316 µM) was > 10 µM, the IC50 (second compound 0.1 µM) was > 10 µM and the IC50 (second compound 0.316 µM) was > 10 µM. For the same compound, the IC50 (second compound 1 µM) was > 10 µM, the IC50 (second compound 3.16 µM) was > 10 µM and the IC50 (second compound 10 µM) was > 10 µM. For the same compound, the viability, T/C [1] was 118%, the viability, T/C [2] was 112% and the viability, T/C [3] was 96.5%. The viability, T/C [4] was 97.1%, the viability, T/C [5] was 89.4% and the viability, T/C [6] was 89.3%. The viability, T/C [7] was 113%, the viability, T/C [8] was 115% and the viability, T/C [9] was 96%. The viability, T/C [10] was 101%, the viability, T/C [11] was 87% and the viability, T/C [12] was 80.9%. It also gave a viability, T/C [13] of 94.5%, a viability, T/C [14] of 104% and a viability, T/C [15] of 101%. It also gave a viability, T/C [16] of 93%, a viability, T/C [17] of 85.6% and a viability, T/C [18] of 86.1%. The viability, T/C [19] was 117%, the viability, T/C [20] was 114% and the viability, T/C [21] was 111%. For the same compound, the viability, T/C [22] was 90.2%, the viability, T/C [23] was 92.4% and the viability, T/C [24] was 86%. It also gave a viability, T/C [25] of 116%, a viability, T/C [26] of 106% and a viability, T/C [27] of 86.9%. For the same compound, the viability, T/C [28] was 89%, the viability, T/C [29] was 92.2% and the viability, T/C [30] was 78.4%. The viability, T/C [31] was 126%, the viability, T/C [32] was 101% and the viability, T/C [33] was 92.6%. For the same compound, the viability, T/C [34] was 85%, the viability, T/C [35] was 83.4% and the viability, T/C [36] was 84.9%.

Reference: PubChem BioAssay AID1963828 (Molecular Pharmacology Branch, DTP, NCI, 2024)
